Data from ChEMBL document CHEMBL3862010, “N-Arylsulfonyl-α-amino carboxamides are potent and selective inhibitors of the chemokine receptor CCR10 that show efficacy in the murine DNFB model of contact hypersensitivity” (Bioorg Med Chem Lett, 2016).
Blank lines part the entries; values can stand above or below the molecule they belong to.

What was measured:
[1] = Time at which plasma concentration stays near or above in vitro murine IC50 level in Balb/C mouse at 100 mg/kg, ip bid; format: ADME, organism-based; settings: in vivo
Mus musculus [2] = assay: Antiinflammatory activity in Balb/C mouse model of contact hypersensitivity assessed as inhibition of DNFB-stimulated ear swelling at 100 mg/kg, ip bid administered at 0 and 8 hrs measured 24 hrs post DNFB stimulation; format: functional
[3] = molecular target: C-C chemokine receptor type 6 (Homo sapiens, UniProt P51684); assay: Antagonist activity at human CCR6 assessed as inhibition of CCL20/MIP-3alpha-induced calcium flux; format: functional
Chain of C-C chemokine receptor type 6 (P51684 whole entry): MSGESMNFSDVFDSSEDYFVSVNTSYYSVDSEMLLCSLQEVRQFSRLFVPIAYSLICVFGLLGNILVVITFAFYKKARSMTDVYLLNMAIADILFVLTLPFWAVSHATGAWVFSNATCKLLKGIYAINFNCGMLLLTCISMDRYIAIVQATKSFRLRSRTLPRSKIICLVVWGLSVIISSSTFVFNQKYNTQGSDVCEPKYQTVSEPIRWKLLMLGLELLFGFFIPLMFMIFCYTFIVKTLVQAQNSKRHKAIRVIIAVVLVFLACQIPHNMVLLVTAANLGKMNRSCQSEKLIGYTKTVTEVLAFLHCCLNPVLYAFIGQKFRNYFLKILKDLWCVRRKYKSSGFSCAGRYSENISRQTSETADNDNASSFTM

[4] = molecular target: T1, C-C chemokine receptor type 10 (Mus musculus, UniProt Q9JL21); assay: Antagonist activity at mouse CCR10 expressed in CHOK1 cells coexpressing aequorin/Galphaq assessed as inhibition of CCL27-dependent calcium flux in presence of coelenterazine H by chemiluminescence assay; format: functional, cell-based, CHO-K1
T1 sequence (Q9JL21 whole entry): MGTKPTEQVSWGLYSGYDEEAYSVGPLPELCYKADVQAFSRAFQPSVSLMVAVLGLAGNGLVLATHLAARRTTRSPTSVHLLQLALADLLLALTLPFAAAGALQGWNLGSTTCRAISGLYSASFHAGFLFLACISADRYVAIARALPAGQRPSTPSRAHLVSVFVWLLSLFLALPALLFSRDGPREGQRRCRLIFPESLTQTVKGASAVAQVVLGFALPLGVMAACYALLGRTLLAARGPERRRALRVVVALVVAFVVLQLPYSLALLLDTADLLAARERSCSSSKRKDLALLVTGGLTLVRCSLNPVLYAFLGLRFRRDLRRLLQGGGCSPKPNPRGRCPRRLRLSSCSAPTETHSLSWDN

[5] = Plasma concentration in Balb/C mouse at 100 mg/kg, ip bid measured after 7 hrs; format: ADME, organism-based
[6] = Plasma concentration in Balb/C mouse at 100 mg/kg, ip bid measured after 1 hr; format: ADME, organism-based; settings: in vivo
[7] = Protein binding in Balb/C mouse plasma at 100 mg/kg, ip bid; format: ADME, organism-based; settings: Balb/C, plasma, read-out: PPB
[8] = molecular target: T2, C-C chemokine receptor type 10 (Homo sapiens, UniProt P46092); assay: Antagonist activity at human CCR10 expressed in CHOK1 cells coexpressing aequorin/Galphaq assessed as inhibition of human CCL27-dependent calcium flux in presence of coelenterazine H by chemiluminescence assay; format: functional, cell-based, CHO-K1; settings: read-out: pIC50 (converted)
T2 sequence (P46092 whole entry): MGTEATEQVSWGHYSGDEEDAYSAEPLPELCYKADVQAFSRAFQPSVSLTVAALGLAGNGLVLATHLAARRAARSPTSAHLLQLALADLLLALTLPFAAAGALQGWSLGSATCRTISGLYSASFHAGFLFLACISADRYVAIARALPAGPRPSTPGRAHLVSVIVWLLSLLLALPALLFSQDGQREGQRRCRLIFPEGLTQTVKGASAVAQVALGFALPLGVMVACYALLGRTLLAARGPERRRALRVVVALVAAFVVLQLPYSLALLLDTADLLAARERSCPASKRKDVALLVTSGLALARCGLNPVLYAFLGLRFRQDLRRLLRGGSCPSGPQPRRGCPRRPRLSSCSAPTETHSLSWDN

[9] = Plasma concentration in Balb/C mouse at 30 mg/kg, ip bid measured after 1 hr; format: ADME, organism-based; settings: Balb/C, plasma
[10] = molecular target: D(1A) dopamine receptor (Homo sapiens) (UniProt P21728); assay: Binding affinity to human dopamine D1 receptor at 10 uM relative to control
Chain of D(1A) dopamine receptor (Homo sapiens) (P21728 whole entry): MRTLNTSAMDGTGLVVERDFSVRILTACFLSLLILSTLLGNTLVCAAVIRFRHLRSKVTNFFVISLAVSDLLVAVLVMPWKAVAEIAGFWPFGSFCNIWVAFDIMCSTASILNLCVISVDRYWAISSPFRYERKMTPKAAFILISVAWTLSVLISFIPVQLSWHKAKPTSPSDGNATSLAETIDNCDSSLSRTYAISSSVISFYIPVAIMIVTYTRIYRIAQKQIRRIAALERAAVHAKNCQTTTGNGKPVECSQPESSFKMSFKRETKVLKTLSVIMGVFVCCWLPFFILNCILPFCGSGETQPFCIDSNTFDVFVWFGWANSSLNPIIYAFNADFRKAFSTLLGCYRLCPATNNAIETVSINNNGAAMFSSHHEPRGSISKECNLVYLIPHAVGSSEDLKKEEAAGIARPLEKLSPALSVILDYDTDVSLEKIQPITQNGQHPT

Rattus norvegicus [11] = species on record: Rattus norvegicus; assay: Binding affinity to rat muscarinic acetylcholine receptor at 10 uM relative to control
[12] = molecular target: Type-1 angiotensin II receptor (Homo sapiens) (UniProt P30556); assay: Binding affinity to human AT1 receptor at 10 uM relative to control
Chain of Type-1 angiotensin II receptor (Homo sapiens) (P30556 whole entry): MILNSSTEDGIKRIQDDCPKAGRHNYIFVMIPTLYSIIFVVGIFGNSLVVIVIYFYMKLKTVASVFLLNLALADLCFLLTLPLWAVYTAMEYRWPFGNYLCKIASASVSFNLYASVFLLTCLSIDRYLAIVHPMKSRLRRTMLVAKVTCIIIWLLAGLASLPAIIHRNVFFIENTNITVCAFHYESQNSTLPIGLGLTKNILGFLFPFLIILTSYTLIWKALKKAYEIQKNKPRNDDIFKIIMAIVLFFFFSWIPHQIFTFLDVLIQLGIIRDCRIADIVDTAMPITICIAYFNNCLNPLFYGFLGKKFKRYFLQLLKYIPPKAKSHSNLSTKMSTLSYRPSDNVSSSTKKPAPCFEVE

[13] = molecular target: Adrenergic receptor beta (Rattus norvegicus) (UniProt P18090+P10608+P26255); assay: Binding affinity to rat adrenergic beta receptor at 10 uM relative to control
[14] = molecular target: Adrenergic receptor alpha-1 (Rattus norvegicus) (UniProt P15823+P23944+P43140); assay: Binding affinity to rat adrenergic alpha1 receptor at 10 uM relative to control
[15] = molecular target: 5-hydroxytryptamine receptor 3A (Homo sapiens) (UniProt P46098); assay: Binding affinity to human 5-HT3 receptor at 10 uM relative to control
Chain of 5-hydroxytryptamine receptor 3A (Homo sapiens) (P46098 whole entry): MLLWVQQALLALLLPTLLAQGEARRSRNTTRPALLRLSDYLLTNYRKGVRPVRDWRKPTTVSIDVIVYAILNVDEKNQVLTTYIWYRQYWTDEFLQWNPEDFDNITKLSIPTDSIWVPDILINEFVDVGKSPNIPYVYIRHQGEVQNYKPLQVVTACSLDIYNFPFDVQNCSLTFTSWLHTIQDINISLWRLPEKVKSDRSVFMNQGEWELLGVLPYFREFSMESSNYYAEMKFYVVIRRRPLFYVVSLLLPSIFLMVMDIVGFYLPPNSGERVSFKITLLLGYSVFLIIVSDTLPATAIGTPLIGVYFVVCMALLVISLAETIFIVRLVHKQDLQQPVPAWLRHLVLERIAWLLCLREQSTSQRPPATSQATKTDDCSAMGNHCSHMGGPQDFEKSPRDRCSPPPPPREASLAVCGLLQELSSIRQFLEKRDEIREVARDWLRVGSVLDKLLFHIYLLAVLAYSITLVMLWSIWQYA

[16] = molecular target: C-C chemokine receptor type 4 (Homo sapiens) (UniProt P51679); assay: Antagonist activity at human CCR4 assessed as inhibition of CCL22-induced calcium flux at 10 uM relative to control; format: functional
Chain of C-C chemokine receptor type 4 (Homo sapiens) (P51679 whole entry): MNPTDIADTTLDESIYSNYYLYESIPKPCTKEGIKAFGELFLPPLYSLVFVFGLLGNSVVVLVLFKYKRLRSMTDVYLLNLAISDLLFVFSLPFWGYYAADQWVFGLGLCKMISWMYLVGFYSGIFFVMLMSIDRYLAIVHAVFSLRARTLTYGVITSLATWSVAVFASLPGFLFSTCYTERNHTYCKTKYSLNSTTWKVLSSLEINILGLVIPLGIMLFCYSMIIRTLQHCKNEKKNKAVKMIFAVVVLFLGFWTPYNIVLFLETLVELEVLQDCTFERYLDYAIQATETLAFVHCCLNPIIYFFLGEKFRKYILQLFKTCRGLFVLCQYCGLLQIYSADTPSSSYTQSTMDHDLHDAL

Rattus norvegicus [17] = species on record: Rattus norvegicus; assay: Binding affinity to rat GABA-A receptor at 10 uM relative to control
[18] = molecular target: Adrenergic receptor alpha-2 (Rattus norvegicus) (UniProt P22086+P19328+P22909); assay: Binding affinity to rat adrenergic alpha2 receptor at 10 uM relative to control
[19] = molecular target: 5-hydroxytryptamine receptor 2A (Rattus norvegicus) (UniProt P14842); assay: Binding affinity to rat 5-HT2 receptor at 10 uM relative to control
Chain of 5-hydroxytryptamine receptor 2A (Rattus norvegicus) (P14842 whole entry): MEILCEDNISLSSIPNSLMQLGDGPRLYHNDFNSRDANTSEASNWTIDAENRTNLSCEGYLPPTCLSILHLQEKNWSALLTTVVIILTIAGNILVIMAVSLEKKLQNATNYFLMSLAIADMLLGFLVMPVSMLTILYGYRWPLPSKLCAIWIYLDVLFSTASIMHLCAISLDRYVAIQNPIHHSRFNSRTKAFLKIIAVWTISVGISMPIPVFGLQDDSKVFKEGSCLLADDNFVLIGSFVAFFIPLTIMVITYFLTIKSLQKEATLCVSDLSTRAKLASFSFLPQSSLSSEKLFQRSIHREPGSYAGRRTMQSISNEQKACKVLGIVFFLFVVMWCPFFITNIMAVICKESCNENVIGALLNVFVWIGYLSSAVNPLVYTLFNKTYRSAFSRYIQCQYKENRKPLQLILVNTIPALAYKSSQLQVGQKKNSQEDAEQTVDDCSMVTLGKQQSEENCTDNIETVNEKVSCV

Rattus norvegicus [20] = species on record: Rattus norvegicus; assay: Binding affinity to rat glutamate receptor at 10 uM relative to control
[21] = molecular target: D(3) dopamine receptor (Homo sapiens) (UniProt P35462); assay: Binding affinity to human dopamine D3 receptor at 10 uM relative to control
Chain of D(3) dopamine receptor (Homo sapiens) (P35462 whole entry): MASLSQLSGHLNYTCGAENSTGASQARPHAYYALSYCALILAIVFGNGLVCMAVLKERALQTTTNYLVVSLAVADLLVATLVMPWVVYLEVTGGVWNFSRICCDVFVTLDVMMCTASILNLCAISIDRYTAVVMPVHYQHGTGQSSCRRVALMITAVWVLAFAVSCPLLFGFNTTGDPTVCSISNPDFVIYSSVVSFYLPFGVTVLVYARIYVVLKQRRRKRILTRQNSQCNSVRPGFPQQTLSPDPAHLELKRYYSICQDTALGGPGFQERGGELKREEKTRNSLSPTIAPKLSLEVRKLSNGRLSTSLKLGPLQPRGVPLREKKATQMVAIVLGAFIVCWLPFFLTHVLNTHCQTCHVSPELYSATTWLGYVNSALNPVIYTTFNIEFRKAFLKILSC

[22] = molecular target: Histamine H2 receptor (Homo sapiens) (UniProt P25021); assay: Binding affinity to human histamine H2 receptor at 10 uM relative to control
Homo sapiens [23] = species on record: Homo sapiens; assay: Binding affinity to human nicotinic acetylcholine receptor at 10 uM relative to control
Homo sapiens [24] = species on record: Homo sapiens; assay: Binding affinity to human IL-8 receptor at 10 uM relative to control
[25] = molecular target: D(2) dopamine receptor (Homo sapiens) (UniProt P14416); assay: Binding affinity to human dopamine D2L receptor at 10 uM relative to control
Chain of D(2) dopamine receptor (Homo sapiens) (P14416 whole entry): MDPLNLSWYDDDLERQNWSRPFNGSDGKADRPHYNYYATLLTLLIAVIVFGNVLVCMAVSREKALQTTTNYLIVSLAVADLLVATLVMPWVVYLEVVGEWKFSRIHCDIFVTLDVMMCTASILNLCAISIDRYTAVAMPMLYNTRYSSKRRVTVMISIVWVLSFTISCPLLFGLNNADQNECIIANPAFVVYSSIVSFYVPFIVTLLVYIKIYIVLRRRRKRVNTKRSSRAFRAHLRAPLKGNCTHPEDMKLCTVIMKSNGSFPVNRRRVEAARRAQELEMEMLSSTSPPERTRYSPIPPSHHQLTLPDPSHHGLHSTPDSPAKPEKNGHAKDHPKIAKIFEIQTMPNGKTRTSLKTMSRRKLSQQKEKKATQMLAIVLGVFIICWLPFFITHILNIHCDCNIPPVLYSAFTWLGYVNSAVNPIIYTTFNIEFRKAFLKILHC

[26] = molecular target: B2 bradykinin receptor (Homo sapiens) (UniProt P30411); assay: Binding affinity to human B2 bradykinin receptor at 10 uM relative to control
Chain of B2 bradykinin receptor (Homo sapiens) (P30411 whole entry): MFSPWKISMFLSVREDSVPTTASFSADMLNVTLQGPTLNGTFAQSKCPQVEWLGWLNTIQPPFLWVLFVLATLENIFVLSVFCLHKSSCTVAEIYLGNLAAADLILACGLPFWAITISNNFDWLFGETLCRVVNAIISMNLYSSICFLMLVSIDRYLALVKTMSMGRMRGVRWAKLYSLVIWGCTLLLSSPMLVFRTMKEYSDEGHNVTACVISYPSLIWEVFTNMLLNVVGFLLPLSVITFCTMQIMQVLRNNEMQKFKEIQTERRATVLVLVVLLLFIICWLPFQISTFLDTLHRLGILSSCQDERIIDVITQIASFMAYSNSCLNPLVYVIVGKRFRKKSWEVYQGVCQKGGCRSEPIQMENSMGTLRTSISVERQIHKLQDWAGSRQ

Mus musculus [27] = assay: Antiinflammatory activity in Balb/C mouse model of contact hypersensitivity assessed as inhibition of DNFB-stimulated ear swelling administered ip bid at 0 and 8 hrs measured 24 hrs post DNFB stimulation; format: functional, organism-based
[28] = molecular target: Histamine H1 receptor (Homo sapiens) (UniProt P35367); assay: Binding affinity to human histamine H1 receptor at 10 uM relative to control
Chain of Histamine H1 receptor (Homo sapiens) (P35367 whole entry): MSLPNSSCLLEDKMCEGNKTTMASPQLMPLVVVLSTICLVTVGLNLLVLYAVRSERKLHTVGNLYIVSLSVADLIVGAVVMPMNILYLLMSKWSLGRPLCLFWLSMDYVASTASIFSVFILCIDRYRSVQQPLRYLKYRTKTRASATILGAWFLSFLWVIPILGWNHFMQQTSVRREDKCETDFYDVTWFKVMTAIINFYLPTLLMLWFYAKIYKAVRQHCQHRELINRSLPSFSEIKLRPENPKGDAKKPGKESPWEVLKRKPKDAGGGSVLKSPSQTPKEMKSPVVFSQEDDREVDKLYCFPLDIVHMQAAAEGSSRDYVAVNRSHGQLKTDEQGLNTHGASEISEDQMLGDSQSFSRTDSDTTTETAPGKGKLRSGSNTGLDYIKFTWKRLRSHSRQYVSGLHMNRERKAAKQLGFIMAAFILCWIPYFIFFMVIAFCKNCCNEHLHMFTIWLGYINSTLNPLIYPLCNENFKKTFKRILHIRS

Rattus norvegicus [29] = species on record: Rattus norvegicus; assay: Binding affinity to rat GABA-B receptor at 10 uM relative to control
Rattus norvegicus [30] = species on record: Rattus norvegicus; assay: Binding affinity to rat 5-HT1 receptor at 10 uM relative to control
[31] = Half life in mouse liver microsomes; format: ADME
[32] = molecular target: T2, C-C chemokine receptor type 10; assay: Antagonist activity at human CCR10 expressed in CHOK1 cells coexpressing aequorin/Galphaq assessed as inhibition of CCL27-dependent calcium flux in presence of coelenterazine H by FLIPR assay; format: functional, cell-based, CHO-K1
[33] = molecular target: T2, C-C chemokine receptor type 10; assay: Antagonist activity at human CCR10 expressed in HEK cell membranes assessed as inhibition of human CCL27-dependent europium-labeled GTP binding; parameters: species or system HEK293
[34] = molecular target: C-X-C chemokine receptor type 2 (Homo sapiens, UniProt P25025); assay: Antagonist activity at human CXCR2 assessed as inhibition of GROalpha-induced calcium flux; format: functional
[35] = Clearance in mouse liver microsomes relative to hepatic blood flow; format: ADME; settings: read-out: CLH
Histamine H4 receptor = Histamine H4 receptor (Homo sapiens, UniProt Q9H3N8); assay: Antagonist activity at human histamine H4 receptor assessed as inhibition of histamine-induced calcium flux; format: functional
[36] = molecular target: C-C chemokine receptor type 2 (Homo sapiens, UniProt P41597); assay: Antagonist activity at human CCR2 assessed as inhibition of MCP1-induced calcium flux; format: functional
[37] = molecular target: C-X-C chemokine receptor type 3 (Homo sapiens, UniProt P49682); assay: Antagonist activity at human CXCR3 assessed as inhibition of IP10-induced calcium flux; format: functional
Chain of C-X-C chemokine receptor type 3 (P49682 whole entry): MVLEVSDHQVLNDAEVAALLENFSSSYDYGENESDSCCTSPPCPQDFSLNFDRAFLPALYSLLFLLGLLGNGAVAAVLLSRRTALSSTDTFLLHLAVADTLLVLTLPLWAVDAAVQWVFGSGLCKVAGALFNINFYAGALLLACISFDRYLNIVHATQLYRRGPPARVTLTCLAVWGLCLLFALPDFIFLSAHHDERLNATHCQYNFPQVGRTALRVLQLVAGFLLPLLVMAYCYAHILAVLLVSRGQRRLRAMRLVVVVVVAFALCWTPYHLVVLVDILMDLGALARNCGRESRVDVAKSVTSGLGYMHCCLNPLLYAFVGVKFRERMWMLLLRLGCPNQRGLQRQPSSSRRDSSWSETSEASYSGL

[38] = molecular target: C-C chemokine receptor type 1 (Homo sapiens, UniProt P32246); assay: Antagonist activity at human CCR1 assessed as inhibition of MIP1alpha-induced calcium flux; format: functional
[39] = molecular target: C-C chemokine receptor type 5 (Homo sapiens, UniProt P51681); assay: Antagonist activity at human CCR5 assessed as inhibition of RANTES-induced calcium flux; format: functional
Chain of C-C chemokine receptor type 5 (P51681 whole entry): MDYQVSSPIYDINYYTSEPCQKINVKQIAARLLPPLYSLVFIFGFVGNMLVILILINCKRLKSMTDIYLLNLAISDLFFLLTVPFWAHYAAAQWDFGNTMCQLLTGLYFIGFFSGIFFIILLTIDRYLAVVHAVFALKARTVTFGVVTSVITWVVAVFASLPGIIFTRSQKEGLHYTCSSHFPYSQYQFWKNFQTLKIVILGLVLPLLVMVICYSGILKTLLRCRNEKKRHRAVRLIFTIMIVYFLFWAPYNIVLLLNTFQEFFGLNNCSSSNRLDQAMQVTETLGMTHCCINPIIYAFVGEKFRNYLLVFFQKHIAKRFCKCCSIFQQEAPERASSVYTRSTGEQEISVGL

[40] = molecular target: T2, C-C chemokine receptor type 10; assay: Antagonist activity at human CCR10 expressed in CHOK1 cells coexpressing aequorin/Galphaq assessed as inhibition of human CCL28-dependent calcium flux by chemiluminescence assay; format: functional, cell-based, CHO-K1
[41] = molecular target: T2, C-C chemokine receptor type 10; assay: Antagonist activity at human CCR10 expressed in CHOK1 cells coexpressing aequorin/Galphaq assessed as inhibition of human CCL28-dependent calcium flux by FLIPR assay; format: functional, cell-based, CHO-K1
[42] = molecular target: T2, C-C chemokine receptor type 10; assay: Antagonist activity at human CCR10 expressed in HEK cells assessed as inhibition of human CCL27-dependent cAMP production; format: functional, cell-based, HEK293

- Time [1]: <= 8 hr
- IC50 [3]: > 10000 nM
- IC50 [4]: 25.1 nM
- concentration at 7 h [5]: 0.2 µM
- concentration [6]: 7.6 µM
- fraction unbound [7]: 0.01
- IC50 [8]: 1 nM
- concentration at 1 h [9]: 3.7 µM
SMILES: CC1CCN(C(=O)C(CCn2cccc2C#N)NS(=O)(=O)c2cccc3[nH]ccc23)CC1 (stereo in doubt; form 1) [listing 1 of 2 here]
- inhibition in vivo at 100 mg/kg (Mus musculus [2]): 75%

- Activity [10]: < 10%
- Activity (Rattus norvegicus [11]): 22%
- Activity [12]: < 10%
- Activity [13]: < 10%
- Activity [14]: < 10%
- Activity [15]: < 10%
- inhibition [16]: < 10%
- Activity (Rattus norvegicus [17]): < 10%
- Activity [18]: < 10%
- Activity [19]: < 10%
- Activity (Rattus norvegicus [20]): < 10%
- Activity [21]: < 10%
- Activity [22]: < 10%
- Activity (Homo sapiens [23]): < 10%
- Activity (Homo sapiens [24]): < 10%
- Activity [25]: < 10%
- Activity [26]: < 10%
- Activity [28]: < 10%
- Activity (Rattus norvegicus [29]): < 10%
- Activity (Rattus norvegicus [30]): 19%
SMILES: CC1CCN(C(=O)C(CCn2cccc2C#N)NS(=O)(=O)c2cccc3[nH]ccc23)CC1 (stereo in doubt; form 1) [listing 2 of 2 here]
- inhibition (Mus musculus [27]): Dose-dependent effect

- half-life [31]: < 3 min
- IC50 [32]: 0.398 nM
- IC50 [33]: 10 nM
- IC50 [34]: > 10000 nM
- hepatic extraction ratio [35]: > 0.88
- IC50 (Histamine H4 receptor): > 10000 nM
- IC50 [36]: > 10000 nM
- IC50 [37]: > 10000 nM
- IC50 [4]: 63.1 nM
- IC50 [38]: > 10000 nM
- IC50 [8]: 2 nM
- IC50 [39]: > 10000 nM
- IC50 [40]: 1 nM
- IC50 [41]: 1.26 nM
- IC50 [42]: 25.1 nM
SMILES: CC1CCN(C(=O)C(CCn2cccc2C#N)NS(=O)(=O)c2cccc3[nH]ccc23)CC1 (racemic)

- IC50 [32]: > 20000 nM
SMILES: CC1CCN(C(=O)C(CCn2ccnc2)NS(=O)(=O)c2cc(Cl)c(N)c(Cl)c2)CC1 (stereo unspecified)
